“Also recorded” adds a separate entry of the source.
Experiments:
[1] = system: U-87 MG (ATCC HTB-14) glioblastoma cells over-expressing integrin αvβ3; experiment: Fluorescence microscopy probe binding assay in U-87 cells; type: cell-based, human; settings: blocking dose 20 μmol/L
Procedure: Fluorescence Microscopy Studies. […] For fluorescence microscopy studies, 1×10^4 U-87 cells were cultured on 35 mm MatTek glass bottom culture dishes. After 24 hr, cells were washed with PBS and then incubated with bivalent-IA-Cy5.5 (200 nM) at 37° C. for 45 min. Integrin specificity of the probe binding was verified by incubating U-87 cells with and without a blocking dose of the non-fluorescent bivalent IA (20 μmol/L). After the incubation period, the cells were washed three times with ice-cold PBS. The fluorescence signal of the cells was recorded using FluoView® 1000 Laser Scanning Confocal Microscope (Olympus, Center Valley, Pa., USA) under a 40× oil-immersion objective, with laser excitation at 675 nm (Cy5.5). A differential interference contrast image was also recorded so that the origin of fluorescent signals could be confirmed.

U-87 xenograft tumors = experiment: In vivo and ex vivo NIR fluorescence imaging of U-87 xenograft tumor-bearing mice; settings: co-administered with 10 nmol bivalent-IA-Cy5.5; 2, 4, 7, 24, 48 hrs
Procedure: U-87 MG Xenograft Model, Animal procedures were performed according to approved protocols. Female athymic nude mice (nu/nu), obtained from Charles River Laboratories, Inc. (Cambridge, Mass., USA) at 4-6 weeks of age, were injected subcutaneously in the right rear thigh with 1×10^7 U-87 MG cells suspended in 100 μL of phosphate-buffered saline (PBS). The cancer cells were harvested from sub-confluent cultures with 0.25% trypsin. Trypsinization was stopped with DMEM containing 10% FBS, after which the cells were washed once in serum-free medium and resuspended in PBS. Trypan blue exclusion was performed to ensure >90% cell viability. The tumor bearing mice were subjected to in vivo imaging studies when the tumors reached 0.4-0.6 cm in diameter.
In vivo Fluorescence Imaging of Tumors. ˜3×10^6 U-87 cells were implanted bilaterally in the posterior flanks of immunocompromised (nu/nu) mice and grown to ˜4 to 6 mm in diameter. Imaging was carried out in groups of five mice. After palpable masses were detected, animals were manually restrained and imaging probes were intravenously administered (lateral tail vein) using a 30-Ga needle via aseptic technique. Free Cy5.5 was prepared by dissolving the same Cy5.5NHS ester used for labeling the bivalent IA (GE Healthcare, Piscatway, N.J., USA) in phosphate buffered saline (PBS), pH 7.4 overnight at 4° C. Stock concentration of free Cy5.5 was measured optically using the molar extinction coefficient of 250000M-1 cm-1 using a UV-visible spectrophotometer at the maximum absorbance wavelength (675 nm) as recommended by the manufacturer. The bivalent-IA-Cy5.5 was weighed and confirmed by spectrophotometric measurement. Appropriate dilutions of each probe were made in PBS, pH 7.4, and each was filter sterilized (0.2-μm) immediately prior to use. All animals weighed between 18 and 20 g, and each received 10 nmol of imaging probe (in a total volume of 100 μL). Fluorescence imaging was performed with a small animal-dedicated optical imaging system (Xenogen/Caliper IVIS-200, Mountain View, Calif., USA) under continuous 1.5-2.0% isoflurane delivered through the integrated anesthesia nosecone system. At 2-, 4-, 7-, 24-, and 48-hrs' post-injection, images were acquired with the surface of the tissue of interest (tumor) approximating a perpendicular viewing angle relative to the camera line of sight; this viewing angle was also used for normal tissue selection.
For determining tumor contrast, mean fluorescence intensities of the tumor area (T) defined as radiance (photons/sec/cm2/sr) at the right rear leg of the animal and of the area (N) at the right flank (normal tissue) were calculated by region-of-interest (ROI) analysis using the corresponding photograph of each image acquisition dataset to identify the tumor region. Pre-injection imaging was also performed to determine baseline autofluorescence. For competitive inhibition studies, mice (n=3) were co-injected with 500 nmol bivalent IA and 10 nmol of imaging probe (bivalent-IA-Cy5.5) following the same procedure described above. Free Cy5.5 studies were performed in the same manner following the intravenous injection of 10 nmol. For ex vivo biodistribution imaging, two tumor-bearing mice were imaged 24 hrs post injection of bivalent-IA-Cy5.5 and thereafter euthanized per IACUC protocol (CO2 and cervical dislocation). Tumor and major internal organs (heart, lung, liver, spleen, gastrointestinal tract, and kidneys) were harvested, weighed, and imaged against a black paper background. All image acquisition parameters were as follows: epi-illumination; Cy5.5 Em/Ex; Bin: (HR)4, FOV: 12.9; f2; 0.2 sec.

## NC(CCCCCC(=O)NCCS(=O)(=O)N[C@@H](CNC(=O)c1ccc(OCCNC2=NCCCN2)cc1)C(=O)O)C(=O)NCCS(=O)(=O)N[C@@H](CNC(=O)c1ccc(OCCNC2=NCCCN2)cc1)C(=O)O (some centres unmarked) [bivalent IA]
[1]
  blocking of bivalent-IA-Cy5.5 binding/endocytosis in U-87 cells: complete blockage of endocytosis of the imaging probes; also recorded: effectively blocked
U-87 xenograft tumors
  competitive inhibition of bivalent-IA-Cy5.5 tumor fluorescence signal: Significant blocking of tumor fluorescence signal; also recorded: reduced at all timepoints measured

From patent US9833520B2, “Labeled, non-peptidic, multivalent integrin antagonist compounds; methods for synthesis and uses thereof” (The Methodist Hospital Research Institute, priority 2011, dated 2017)
